Measured values taken from US11986445B2, “Nutritional composition and infant formula for promoting myelination of the brain” (SOCIÉTÉ DES PRODUITS NESTLÉ S.A., priority 2015, dated 2024).

The molecules below were run on Neural Progenitor Cell (NPCs) from E14 mouse neocortex (assay: Monolayer culture NPC proliferation assay). Conditions: Sphingomyelin low dose (Dose 1: 10 nM); 3 days culture.
Type: cell-based
Experimental: (§1) Generation of Neural Progenitor Cell (NPCs) Libraries: • dissociation of E14 mouse neocortex
(§2) E14 pup brains were harvested and placed in ice cold DPBS (1×)+10% Pen/Strep, then they were dissected using a dissecting microscope. From each pup, one brain hemisphere was placed in 2 ml of Neurobasal media/10% P/S/10× Hepes and another brain hemisphere was placed in another tube.
(§3) The tissue from each tube was aseptically and manually dissociate into single cells, neurobasal complete medium was added and centrifuged at 130 G for 5 min. The tissue was then re-suspended in neurobasal complete media with GF and placed in a corning suspension culture dish 100 mm×20 mm (#430591). Cells were passage twice using a 1:3 ratio, after what they were centrifuged (130 g 5 min), resuspended in freezing media (10% DMSO and neurobasal complete media, no GF) and frozen in liquid nitrogen (LN2).
(§4) Vials were remove from LN2, quickly defrosted, and cells were transferred, dropwise, to a 15 mL conical flask. 10 mls of complete neurobasal media was added. Cells were transferred to a suspension culture dish, and placed in an incubator for 2 hours. At 1.5 hours, cells were examined. […]
EDU incorporation was measured using Click-iT® EdU Alexa Fluor® 555 Imaging Kit (Life technologies, #c10338). […]
In the case of Sphingomyelin, the “neuronal proliferation, DAPI” value is reported as 280.

These molecules were tested on brain myelination (myelin water fraction) (assay: Cross-sectional correlation of infant formula nutrient content with brain myelination (MRI myelin water fraction)). Conditions: children up to 5 years fed different infant formulas.
Type: in vivo, human
Excerpt: This technique provides a quantitative measure, the Myelin Water Fraction (MWF), which is a surrogate marker of myelin content in the brain.
Infants included in this study were drawn from a larger longitudinal study of normal brain and behavioral development: the Brown University Assessment of Myelination and Behavior Across Maturation (BAMBAM). To focus on neurotypical development, children with known potential risk factors for learning, neurologic, or psychiatric disorders were specifically excluded during recruitment and enrollment. Thus, children with in utero alcohol or illicit substance exposure, premature (<37 weeks gestation) or multiple birth, fetal ultrasound abnormalities, complicated pregnancy (e.g., preeclampsia), APGAR scores <8, NICU admission, neurological disorder (e.g., head injury, epilepsy), psychiatric or developmental disorders in the infant, parents or siblings (including maternal depression requiring medication) were excluded. Ongoing screenings, such as the MCAT for autism, or CBCL for behavioral problems, were further used to remove enrolled children with clinically concerning behaviors or overt medical conditions (such as autism spectrum disorders).
A combination of retrospective and prospective data were acquired from parents via detailed medical histories and parental interview on the type of infant formula used, percentage of breastfeeding to formula feeding, and length of exclusive breastfeeding. This information was updated at each study visit, which occurred approximately every 6 months for children under 2 years, and yearly for older children. Using this information, children were categorized into one of 2 groups: #1. Exclusively formula-fed; and #2. Exclusively breastfed for at least 90 days (3 months). Children who were fed a combination of breastmilk and formula within 3 months were excluded from our analysis. Infants within the exclusively formula-fed group were further sub-divided based on parental reports of the main infant formula used throughout the first 3 months. Main formula was defined as that given 90% of the time or more (in the case were parents used an alternate brand during vacation, for example).
Using these criteria, 94 exclusively formula-fed infants and young children were selected into group #1. These included 13 children who received formula #2; 28 who received formula #5; 8 who received formula #3; 39 who received formula #4; 5 who received formula #1 and 1 who received formula #6. A sample of 52 exclusively breast-fed infants were also selected and matched to the over formula-fed group with regards to mean age, gestation duration, birth weight, male:female ratio, ethnicity ratio, maternal education, family size, and number of languages spoken in the home (in addition to English).
With phosphatidylcholine the “association of nutrient with myelination (myelin water fraction) over time in the brain” value was “an association with myelination (myelin water fraction) was observed”.
In the case of `[Mg+2]` [magnesium], the “association of nutrient with myelination (myelin water fraction) over time in the brain” value is reported as “an association with myelination (myelin water fraction) was observed”.
With phosphatidylinositol the “association of nutrient with myelination (myelin water fraction) over time in the brain” value was “an association with myelination (myelin water fraction) was observed”.
iron was tested, and the “association of nutrient with myelination (myelin water fraction) over time in the brain” value was “an association with myelination (myelin water fraction) was observed”.
In the case of `[Ca+2]` [calcium], the “association of nutrient with myelination (myelin water fraction) over time in the brain” value is reported as “an association with myelination (myelin water fraction) was observed”.
In the case of `[Zn]` [zinc], the “association of nutrient with myelination (myelin water fraction) over time in the brain” value is reported as “an association with myelination (myelin water fraction) was observed”.
With vitamin B12 the “association of nutrient with myelination (myelin water fraction) over time in the brain” value was “an association with myelination (myelin water fraction) was observed”.
`CCCCC/C=C\C/C=C\C/C=C\C/C=C\CCCC(=O)O` [AA, arachidonic acid] was tested, and the “association of nutrient with myelination (myelin water fraction) over time in the brain” value was “an association with myelination (myelin water fraction) was observed”.
In the case of Sphingomyelin, the “association of nutrient with myelination (myelin water fraction) over time in the brain” value is reported as “an association with myelination (myelin water fraction) was observed”.
With `[P]` [phosphorus] the “association of nutrient with myelination (myelin water fraction) over time in the brain” value was “an association with myelination (myelin water fraction) was observed”.

What follows are molecules tested on Neural Progenitor Cell (NPCs) from E14 mouse neocortex (assay: Neurosphere counts in 96-well plates). Conditions: Sphingomyelin Low dose (Dose 1: 10 nM); cells grown for 2 days.
Type: cell-based
Experimental: as §1, §2, §3
as §4, with “examined. Based on the health and number, the number of plates needed was estimated and the appropriate amount of complete neurobasal media was warmed. After 2 hours, cells were put in a 15 mL conical tube and spun at 130 G, 5 min.” for “examined.”
Sphingomyelin was tested, and the “number of neurospheres, Average (Mean)” value was 94.
